Measurements as given in patent US12252524B2, “GIP/GLP1 co-agonist compounds” (Eli Lilly and Company, priority 2018, dated 2025).
Numbered stars: 1 amine (or outer) side, 2 acyl side, 3 side chain; on linkers, the order of the positions; unused ones are H or OH. Square brackets hold non-standard residues; d marks the D form. Side chains are listed from the residue outwards. Peptide text beside a SMILES is read from it. * marks the point of attachment. C20 diacid = O=C(O)CCCCCCCCCCCCCCCCCCC(=O)*; C18 diacid = O=C(O)CCCCCCCCCCCCCCCCC(=O)*; αMePhe(2-F) = C[C@](N)(Cc1ccccc1F)C(=O)O; γGlu = O=C(O)[C@H](CCC(=O)[*:2])N[*:1]; αMeL = CC(C)C[C@](C)(N)C(=O)O; AEEA = NCCOCCOCC(=O)O; Aib = CC(C)(N)C(=O)O

How the values were obtained:
[1] = target: human GLP-1 receptor (GLP-1R) (Homo sapiens, UniProt P43220); assay: cAMP pharmacological functional assay in presence of casein, hGLP-1R; assay type: cell-based; conditions: HEK293 cells expressing hGLP-1R, 0.1% Casein, geometric mean; read-out: hGLP1R cAMP Rel EC50 nM (SEM, n)
[2] = target: T1, gastric inhibitory peptide receptor (GIPR) (Homo sapiens, UniProt P48546); assay: cAMP pharmacological functional assay in presence of casein, hGIPR; assay type: cell-based; conditions: HEK293 cells expressing hGIPR, 0.1% Casein, geometric mean; read-out: hGIPR cAMP Rel EC50 nM (SEM, n)
T1 sequence (P48546 22-466): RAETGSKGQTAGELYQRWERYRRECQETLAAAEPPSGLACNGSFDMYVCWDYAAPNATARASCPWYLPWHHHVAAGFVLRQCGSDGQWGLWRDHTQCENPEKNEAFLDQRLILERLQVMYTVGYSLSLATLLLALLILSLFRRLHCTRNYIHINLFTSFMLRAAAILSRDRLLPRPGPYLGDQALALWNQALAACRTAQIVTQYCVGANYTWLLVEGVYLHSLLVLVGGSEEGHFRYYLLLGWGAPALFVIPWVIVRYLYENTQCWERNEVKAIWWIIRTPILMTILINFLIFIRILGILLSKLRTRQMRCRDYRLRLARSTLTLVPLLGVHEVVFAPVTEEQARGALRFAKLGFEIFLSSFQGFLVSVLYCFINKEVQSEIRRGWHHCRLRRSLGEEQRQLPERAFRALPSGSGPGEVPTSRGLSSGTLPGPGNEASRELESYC

Sequence of human GLP-1 receptor (GLP-1R) (P43220 24-463): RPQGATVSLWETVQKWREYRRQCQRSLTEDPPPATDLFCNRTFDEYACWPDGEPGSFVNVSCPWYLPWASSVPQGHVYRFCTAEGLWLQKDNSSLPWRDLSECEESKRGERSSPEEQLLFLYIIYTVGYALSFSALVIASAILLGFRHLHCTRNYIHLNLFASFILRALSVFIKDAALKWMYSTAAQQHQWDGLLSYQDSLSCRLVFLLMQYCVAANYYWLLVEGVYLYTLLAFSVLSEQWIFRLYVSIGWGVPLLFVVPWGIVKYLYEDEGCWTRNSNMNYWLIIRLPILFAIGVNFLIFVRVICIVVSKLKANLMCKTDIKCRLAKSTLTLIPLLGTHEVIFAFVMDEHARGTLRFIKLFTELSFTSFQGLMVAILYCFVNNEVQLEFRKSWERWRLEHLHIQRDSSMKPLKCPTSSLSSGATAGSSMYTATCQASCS

| EC50 [1] [nM] | EC50 [2] [nM] | Compound |
| --- | --- | --- |
| 0.702 | 0.287 | CC[C@H](C)[C@H](NC(=O)[C@H](CCCCN)NC(=O)[C@H](CC(=O)O)NC(=O)[C@H](CC(C)C)NC(=O)[C@H](CC(C)C)NC(=O)[C@@H](NC(=O)[C@H](CO)NC(=O)[C@H](Cc1ccc(O)cc1)NC(=O)[C@H](CC(=O)O)NC(=O)[C@H](CO)NC(=O)[C@@H](NC(=O)[C@H](Cc1ccccc1)NC(=O)[C@@H](NC(=O)CNC(=O)[C@H](CCC(=O)O)NC(=O)C(C)(C)NC(=O)[C@@H](N)Cc1ccc(O)cc1)[C@@H](C)O)[C@@H](C)O)[C@@H](C)CC)C(=O)N[C@@H](C)C(=O)N[C@@H](CCC(N)=O)C(=O)NC(C)(C)C(=O)N[C@@H](C)C(=O)N[C@@H](Cc1ccccc1)C(=O)N[C@H](C(=O)N[C@@H](CCC(=O)O)C(=O)N[C@@H](Cc1ccc(O)cc1)C(=O)N[C@@H](CC(C)C)C(=O)N[C@H](C(=O)N[C@@H](CCC(=O)O)C(=O)NCC(=O)NCC(=O)N1CCC[C@H]1C(=O)N[C@@H](CO)C(=O)N[C@@H](CO)C(=O)NCC(=O)N[C@@H](C)C(=O)N1CCC[C@H]1C(=O)N1CCC[C@H]1C(=O)N[C@@H](CCCCNC(=O)COCCOCCNC(=O)COCCOCCNC(=O)CC[C@H](NC(=O)CCCCCCCCCCCCCCCCCCC(=O)O)C(=O)O)C(=O)N[C@@H](CO)C(N)=O)[C@@H](C)CC)[C@@H](C)CC [Example 47] (H-Y[Aib]EGTFTSDYSILLDKIAQ[Aib]AFIEYLIEGGPSSGAPPK([AEEA-AEEA-γGlu-C20 diacid])S-NH2) |
| 0.283 | 0.48 | CC[C@H](C)[C@H](NC(=O)[C@H](CCCCN)NC(=O)[C@H](CC(=O)O)NC(=O)[C@H](CC(C)C)NC(=O)[C@H](CC(C)C)NC(=O)[C@@H](NC(=O)[C@H](CO)NC(=O)[C@H](CCCCNC(=O)COCCOCCNC(=O)COCCOCCNC(=O)CC[C@H](NC(=O)CCCCCCCCCCCCCCCCCCC(=O)O)C(=O)O)NC(=O)[C@H](CC(=O)O)NC(=O)[C@H](CO)NC(=O)[C@@H](NC(=O)[C@H](Cc1ccccc1)NC(=O)[C@@H](NC(=O)CNC(=O)[C@H](CCC(=O)O)NC(=O)C(C)(C)NC(=O)[C@@H](N)Cc1ccc(O)cc1)[C@@H](C)O)[C@@H](C)O)[C@@H](C)CC)C(=O)N[C@@H](C)C(=O)N[C@@H](CCC(N)=O)C(=O)NC(C)(C)C(=O)N[C@@H](C)C(=O)N[C@@H](Cc1ccccc1)C(=O)N[C@H](C(=O)N[C@@H](CCC(=O)O)C(=O)N[C@@H](Cc1ccc(O)cc1)C(=O)N[C@@H](CC(C)C)C(=O)N[C@H](C(=O)N[C@@H](CCC(=O)O)C(=O)NCC(=O)NCC(N)=O)[C@@H](C)CC)[C@@H](C)CC [Example 70] (H-Y[Aib]EGTFTSDK([AEEA-AEEA-γGlu-C20 diacid])SILLDKIAQ[Aib]AFIEYLIEGG-NH2; N-terminus assumed) |
| 1.02 | 0.166 | CC[C@H](C)[C@H](NC(=O)[C@H](CCCCN)NC(=O)[C@H](CC(=O)O)NC(=O)[C@H](CCCCNC(=O)COCCOCCNC(=O)COCCOCCNC(=O)CC[C@H](NC(=O)CCCCCCCCCCCCCCCCCCC(=O)O)C(=O)O)NC(=O)[C@H](CC(C)C)NC(=O)[C@@H](NC(=O)[C@H](CO)NC(=O)[C@H](Cc1ccc(O)cc1)NC(=O)[C@H](CC(=O)O)NC(=O)[C@H](CO)NC(=O)[C@@H](NC(=O)[C@H](Cc1ccccc1)NC(=O)[C@@H](NC(=O)CNC(=O)[C@H](CCC(=O)O)NC(=O)C(C)(C)NC(=O)[C@@H](N)Cc1ccc(O)cc1)[C@@H](C)O)[C@@H](C)O)[C@@H](C)CC)C(=O)N[C@@H](C)C(=O)N[C@@H](CCC(N)=O)C(=O)NC(C)(C)C(=O)N[C@@H](C)C(=O)N[C@@H](Cc1ccccc1)C(=O)N[C@H](C(=O)N[C@@H](CCC(=O)O)C(=O)N[C@@H](Cc1ccc(O)cc1)C(=O)N[C@@H](CC(C)C)C(=O)N[C@H](C(=O)N[C@@H](CCC(=O)O)C(=O)NCC(=O)NCC(N)=O)[C@@H](C)CC)[C@@H](C)CC [Example 71] (H-Y[Aib]EGTFTSDYSILK([AEEA-AEEA-γGlu-C20 diacid])DKIAQ[Aib]AFIEYLIEGG-NH2) |
| 0.906 | 0.252 | CC[C@H](C)[C@H](NC(=O)[C@H](CCCCN)NC(=O)[C@H](CC(=O)O)NC(=O)[C@H](CC(C)C)NC(=O)[C@H](CC(C)C)NC(=O)[C@@H](NC(=O)[C@H](CO)NC(=O)[C@H](Cc1ccc(O)cc1)NC(=O)[C@H](CC(=O)O)NC(=O)[C@H](CO)NC(=O)[C@@H](NC(=O)[C@H](Cc1ccccc1)NC(=O)[C@@H](NC(=O)CNC(=O)[C@H](CCC(=O)O)NC(=O)C(C)(C)NC(=O)[C@@H](N)Cc1ccc(O)cc1)[C@@H](C)O)[C@@H](C)O)[C@@H](C)CC)C(=O)N[C@@H](C)C(=O)N[C@@H](CCC(N)=O)C(=O)NC(C)(C)C(=O)N[C@@H](CCCCNC(=O)COCCOCCNC(=O)COCCOCCNC(=O)CC[C@H](NC(=O)CCCCCCCCCCCCCCCCCCC(=O)O)C(=O)O)C(=O)N[C@@H](Cc1ccccc1)C(=O)N[C@H](C(=O)N[C@@H](CCC(=O)O)C(=O)N[C@@H](Cc1ccc(O)cc1)C(=O)N[C@@H](CC(C)C)C(=O)N[C@H](C(=O)N[C@@H](CCC(=O)O)C(=O)NCC(=O)NCC(N)=O)[C@@H](C)CC)[C@@H](C)CC [Example 72] (H-Y[Aib]EGTFTSDYSILLDKIAQ[Aib]K([AEEA-AEEA-γGlu-C20 diacid])FIEYLIEGG-NH2) |
| 2.55 | 0.979 | CC[C@H](C)[C@H](NC(=O)[C@H](CCCCN)NC(=O)[C@H](CC(=O)O)NC(=O)[C@H](CC(C)C)NC(=O)[C@H](CC(C)C)NC(=O)[C@@H](NC(=O)[C@H](CO)NC(=O)[C@H](Cc1ccc(O)cc1)NC(=O)[C@H](CC(=O)O)NC(=O)[C@H](CO)NC(=O)[C@@H](NC(=O)[C@H](Cc1ccccc1)NC(=O)[C@@H](NC(=O)CNC(=O)[C@H](CCC(=O)O)NC(=O)C(C)(C)NC(=O)[C@@H](N)Cc1ccc(O)cc1)[C@@H](C)O)[C@@H](C)O)[C@@H](C)CC)C(=O)N[C@@H](C)C(=O)N[C@@H](CCC(N)=O)C(=O)NC(C)(C)C(=O)N[C@@H](C)C(=O)N[C@@H](Cc1ccccc1)C(=O)N[C@H](C(=O)N[C@@H](CCC(=O)O)C(=O)N[C@@H](Cc1ccc(O)cc1)C(=O)N[C@@H](CC(C)C)C(=O)N[C@H](C(=O)N[C@@H](CCCCNC(=O)COCCOCCNC(=O)COCCOCCNC(=O)CC[C@H](NC(=O)CCCCCCCCCCCCCCCCCCC(=O)O)C(=O)O)C(=O)NCC(=O)NCC(N)=O)[C@@H](C)CC)[C@@H](C)CC [Example 73] (H-Y[Aib]EGTFTSDYSILLDKIAQ[Aib]AFIEYLIK([AEEA-AEEA-γGlu-C20 diacid])GG-NH2) |
| 2.16 | – | CC[C@H](C)[C@H](NC(=O)[C@H](CC(C)C)NC(=O)[C@H](Cc1ccc(O)cc1)NC(=O)[C@@H](CCC(=O)O)NC(=O)[C@@H](NC(=O)[C@H](Cc1ccccc1)NC(=O)[C@H](Cc1c[nH]cn1)NC(=O)C(C)(C)NC(=O)[C@H](CCC(N)=O)NC(=O)[C@H](C)NC(=O)[C@H](CCCCNC(=O)COCCOCCNC(=O)COCCOCCNC(=O)CC[C@H](NC(=O)CCCCCCCCCCCCCCCCC(=O)O)C(=O)O)NC(=O)[C@H](CCC(=O)O)NC(=O)[C@H](CC(=O)O)NC(=O)[C@H](CC(C)C)NC(=O)[C@](C)(CC(C)C)NC(=O)[C@@H](NC(=O)[C@H](CO)NC(=O)[C@H](Cc1c[nH]cn1)NC(=O)[C@H](CC(=O)O)NC(=O)[C@H](CO)NC(=O)[C@@H](NC(=O)[C@](C)(Cc1ccccc1F)NC(=O)[C@@H](NC(=O)CNC(=O)[C@H](CCC(=O)O)NC(=O)C(C)(C)NC(=O)[C@@H](N)Cc1ccc(O)cc1)[C@@H](C)O)[C@@H](C)O)[C@@H](C)CC)[C@@H](C)CC)C(=O)N[C@@H](CCC(=O)O)C(=O)NCC(=O)NCC(N)=O [Example 180] (H-Y[Aib]EGT[αMePhe(2-F)]TSDHSI[αMeL]LDEK([AEEA-AEEA-γGlu-C18 diacid])AQ[Aib]HFI[dE]YLIEGG-NH2) |

| Compound | EC50 [1] [nM] | EC50 [2] [nM] |
| --- | --- | --- |
| CC[C@H](C)[C@H](NC(=O)[C@H](CC(C)C)NC(=O)[C@H](Cc1ccc(O)cc1)NC(=O)[C@@H](CCC(=O)O)NC(=O)[C@@H](NC(=O)[C@H](Cc1ccccc1)NC(=O)[C@H](CCC(=O)O)NC(=O)C(C)(C)NC(=O)[C@H](CCC(N)=O)NC(=O)[C@H](C)NC(=O)[C@H](CCCCNC(=O)COCCOCCNC(=O)COCCOCCNC(=O)CC[C@H](NC(=O)CCCCCCCCCCCCCCCCCCC(=O)O)C(=O)O)NC(=O)[C@H](CCC(=O)O)NC(=O)[C@H](CC(=O)O)NC(=O)[C@H](CC(C)C)NC(=O)[C@](C)(CC(C)C)NC(=O)[C@@H](NC(=O)[C@H](CO)NC(=O)[C@@H](Cc1ccc(O)cc1)NC(=O)[C@H](CC(=O)O)NC(=O)[C@H](CO)NC(=O)[C@@H](NC(=O)[C@](C)(Cc1ccccc1F)NC(=O)[C@@H](NC(=O)CNC(=O)[C@H](CCC(=O)O)NC(=O)C(C)(C)NC(=O)[C@@H](N)Cc1ccc(O)cc1)[C@@H](C)O)[C@@H](C)O)[C@@H](C)CC)[C@@H](C)CC)C(=O)N[C@@H](CCC(=O)O)C(=O)NCC(=O)NCC(=O)N1CCC[C@H]1C(=O)N[C@@H](CO)C(=O)N[C@@H](CO)C(=O)NCC(=O)N[C@@H](C)C(=O)N1CCC[C@H]1C(=O)N1CCC[C@H]1C(=O)N1CCC[C@H]1C(=O)N[C@@H](CO)C(N)=O [Example 184] (H-Y[Aib]EGT[αMePhe(2-F)]TSD[dY]SI[αMeL]LDEK([AEEA-AEEA-γGlu-C20 diacid])AQ[Aib]EFI[dE]YLIEGGPSSGAPPPS-NH2) | – | 0.0477 |
